According to ChEMBL document CHEMBL5523764, “Discovery of NO Donor-Aurovertin Hybrids as Dual Ferroptosis and Apoptosis Inducers for Treating Triple Negative Breast Cancer” (J Med Chem, 2024):

How the values were obtained:
[1] = system: MDA-MB-231; experiment: Antiproliferative activity against human MDA-MB-231 cells assessed as reduction in cell viability incubated for 72 hrs by MTT assay; format: functional, cell-based; conditions: MDA-MB-231, 72 h
[2] = system: 4T1; experiment: Antiproliferative activity against mouse 4T1 cells assessed as reduction in cell viability incubated for 72 hrs by MTT assay; format: functional, cell-based; conditions: 4T1, 72 h
[3] = Cytotoxicity against human MCF-10A cells assessed as reduction in cell viability incubated for 72 hrs by MTT assay; format: toxicity, cell-based
[4] = Selectivity index, ratio of IC50 for cytotoxicity against human MCF-10A cells to IC50 for antiproliferative activity against human MDA-MB-231 cells; format: toxicity, cell-based; conditions: MCF-10A cells versus MDA-MB-231 cells, read-out: Ratio IC50
[5] = Toxicity in ip dosed mouse assessed as body weight loss; format: organism-based; conditions: in vivo
[6] = Toxicity in ip dosed mouse assessed as appearance of messy furs; format: organism-based; conditions: in vivo
[7] = Toxicity in ip dosed mouse assessed as appearance of loose gray stool; format: organism-based; conditions: in vivo
[8] = Toxicity in mouse assessed as animal death at >6 mg/kg, ip; format: organism-based; conditions: in vivo
[9] = Toxicity in ip dosed mouse assessed as lethal dose; format: organism-based; conditions: in vivo

For `CC[C@H]1O[C@@]2(C)[C@H](OC(C)=O)[C@@]1(C)O[C@@H](/C=C/C=C/C=C/c1oc(=O)cc(OC)c1C)[C@@H]2O`, the IC50 [1] was 2.17 µM, the IC50 [2] was 3.34 µM and the IC50 at 72 h [3] was > 50 µM. The selectivity ratio [4] was > 23, the Activity [5] was “Toxic” and the Activity [6] was “Toxic”. For the same compound, the Activity [7] was “Toxic”, the Activity [8] was “Toxic” and the LD50 [9] was 12 mg/kg.
